In PubChem BioAssay (NCI):
Several values for one entry are separate records, joined by “and”; a condition that tells them apart may be missing. Equal entries are not always repeated.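 Protocol summary: plate cells (96-well), add compound at 5 concentrations, incubate 48 h, interpolate endpoints linearly. GI50 is the concentration that inhibits growth by half. TGI denotes the concentration required for complete inhibition of growth.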 *1 amine or outer side, *2 acyl side, *3 side chain or, on linkers, in order; H or OH if unused. Where a SMILES comes first, the peptide text is derived from it. Bridges are numbered along the chain shown (N, C = ends). Roman numbers before positions name the chains, in order. [ ]: non-standard residue; d: D form. Actinocin(9to1) = Cc1c2oc3c(C)ccc(C(=O)[*:1])c3nc-2c(C(=O)[*:2])c(N)c1=O; NMeT = CN[CH](C(=O)O)[CH](C)O; Sar = CNCC(=O)O

Legend:
Experiment in all cases: DTP human tumour cell line panel, 48 h
[1] = system: ACHN renal
[2] = system: OVCAR-8 ovarian
[3] = system: SNB-19 CNS
[4] = system: MOLT-4 leukemia
[5] = system: CCRF-CEM leukemia
[6] = system: LXFL 529 NSCLC
[7] = system: HOP-18 NSCLC
[8] = system: HCT-116 colon
[9] = system: M19-MEL melanoma
[10] = system: SNB-78 CNS

Row | Structure (SMILES) | TGI [1] | TGI [2] | TGI [3] | TGI [4] | TGI [5] | TGI [6] | TGI [7] | TGI [8] | TGI [9] | TGI [10] | GI50 [8] | GI50 [1] | GI50 [2] | GI50 [4] | GI50 [5] | GI50 [6] | GI50 [7] | GI50 [9] | GI50 [3]
1 | O=C(O)Cc1cc(=O)[nH]c2c1/C(=N/O)CCC2 | > 100 µM | > 100 µM | > 100 µM | > 100 µM | > 100 µM | > 100 µM | > 100 µM | – | – | – | – | – | – | – | – | – | – | – | –
2 | O=C(Nc1ccc(Cl)cc1Cl)C1C(=O)C(=O)N(c2ccc(Cl)cc2Cl)C1=O (centres undefined) | > 100 µM | > 100 µM | > 100 µM | – | – | > 100 µM | > 100 µM | > 100 µM | > 100 µM | > 100 µM | – | – | – | – | – | – | – | – | –
3 | COc1ccc(NC(=O)CC/C(CC(=O)C(C)(C)C)=N\NC(=O)C(=O)NN)cc1 | > 100 µM | – | > 100 µM | > 100 µM | > 100 µM | > 100 µM | > 100 µM | > 100 µM | > 100 µM | > 100 µM | – | – | – | – | – | – | – | – | –
4 | C=C(C#N)C1OCC2OC(C)(C)OC21 (centres undefined) | 42.4 µM | 48.7 µM | > 100 µM | 43.3 µM | 48.8 µM | – | 81.7 µM | 38.4 µM | 61.8 µM | 43 µM | – | – | – | – | – | – | – | – | –
5 | COc1ccc(/C(=N\NC(=O)C(=O)NN)C(c2ccc(OC)cc2)C2(O)C(=O)Nc3ccccc32)cc1 (centres undefined) | > 100 µM | > 100 µM | > 100 µM | > 100 µM | – | > 100 µM | – | > 100 µM | > 100 µM | > 100 µM | – | – | – | – | – | – | – | – | –
6 | COC(=O)C1=C(O)c2cc(-c3ccccc3)c(-c3ccccc3)c(C#N)c2NC(=O)C1 | > 100 µM | > 100 µM | > 100 µM | > 100 µM | > 100 µM | > 100 µM | – | > 100 µM | > 100 µM | > 100 µM | – | – | – | – | – | – | – | – | –
7 | Cc1cccc(C)c1CO | > 100 µM | > 100 µM | > 100 µM | > 100 µM | > 100 µM | > 100 µM | – | > 100 µM | > 100 µM | > 100 µM | – | – | – | – | – | – | – | – | –
8 | O=C(O)NC(c1ccccc1)C(NC(=O)c1ccccc1)c1ccccc1 (centres undefined) | > 100 µM | > 100 µM | > 100 µM | – | – | – | > 100 µM | > 100 µM | > 100 µM | > 100 µM | – | – | – | – | – | – | – | – | –
9 | O=C1[C@H]2ON(c3ccccc3)C(c3ccccc3)[C@H]2C(=O)N1c1ccc(Cc2ccc(N3C(=O)[C@@H]4ON(c5ccccc5)C(c5ccccc5)[C@@H]4C3=O)cc2)cc1 (some centres undefined) | > 100 µM | – | – | > 100 µM | > 100 µM | > 100 µM | > 100 µM | – | – | > 100 µM | – | – | – | – | – | – | – | – | –
10 | C#CCOCn1cnc2c(Sc3c([N+](=O)[O-])ncn3C)ncnc21 | > 100 µM | > 100 µM | > 100 µM | – | > 100 µM | > 100 µM | – | – | > 100 µM | – | – | – | – | – | – | – | – | – | –
11 | CC(=O)[CH-]C(=O)c1ccccc1.CC(=O)[CH-]C(=O)c1ccccc1.CC(C)CCCC(C)[C@H]1CCC2[C@@H]3CC=C4C[C@@H]([O-])CC[C@]4(C)C3CC[C@@]21C.CC(C)CCCC(C)[C@H]1CCC2[C@@H]3CC=C4C[C@@H]([O-])CC[C@]4(C)C3CC[C@@]21C.[Ti+4] (some centres undefined) | > 100 µM | > 100 µM | – | > 100 µM | > 100 µM | > 100 µM | > 100 µM | > 100 µM | – | – | > 100 µM | > 100 µM | > 100 µM | > 100 µM | > 100 µM | > 100 µM | > 100 µM | – | –
12 | CC(C)(C)CC(C)(C)c1cc2c(O)c(c1)Cc1cc(C(C)(C)CC(C)(C)C)cc(c1O)Cc1cc(C(C)(C)CC(C)(C)C)cc(c1O)Cc1cc(C(C)(C)CC(C)(C)C)cc(c1O)Cc1cc(C(C)(C)CC(C)(C)C)cc(c1O)C2 | > 100 µM | > 100 µM | > 100 µM | > 100 µM | > 100 µM | > 100 µM | – | > 100 µM | > 100 µM | > 100 µM | – | – | – | – | – | – | – | – | –
13 | CN(C)CCNC(=O)c1cccc2nc3cc(Cl)ccc3nc12 | 4.22 µM | > 21.3 µM | 16.9 µM | 2.77 µM | – | > 22.3 µM | > 63.2 µM | 2.23 µM | 3.89 µM | 10.5 µM | – | – | – | – | – | – | – | – | –
14 | CC(=O)OC1CCn2nnc(CO)c21 (centres undefined) | – | > 100 µM | > 100 µM | > 100 µM | – | > 100 µM | > 100 µM | > 100 µM | > 100 µM | > 100 µM | – | – | – | – | – | – | – | – | –
15 | CC1=C(C(=O)Nc2cc(=O)n(C)c(=O)n2C)C(c2cccc([N+](=O)[O-])c2)C(C(=O)Nc2cc(=O)n(C)c(=O)n2C)=C(C)N1 | > 100 µM | > 100 µM | > 100 µM | > 100 µM | > 100 µM | > 100 µM | – | – | > 100 µM | > 100 µM | – | – | – | – | – | – | – | – | –
16 | CC(C)[O-].CC(C)[O-].O=C1C=C([O-])C(=O)c2ccccc21.O=C1C=C([O-])C(=O)c2ccccc21.[Ti+4] | > 100 µM | > 100 µM | > 100 µM | > 100 µM | > 100 µM | > 100 µM | > 100 µM | > 100 µM | > 100 µM | – | 43.7 µM | > 85.5 µM | > 100 µM | > 100 µM | > 73 µM | 80.8 µM | > 86.7 µM | 4.42 µM | > 100 µM
17 | COc1ccc(C(=O)C(C(=O)CC(=O)Nc2cccc(C(F)(F)F)c2)c2ccc(OC)cc2)cc1 (centres undefined) | > 100 µM | > 100 µM | > 100 µM | > 100 µM | > 100 µM | > 100 µM | – | > 100 µM | > 100 µM | > 100 µM | – | – | – | – | – | – | – | – | –
18 | Cn1nc(-c2ccccc2)c(C(=O)/C=C/c2ccc(Cl)cc2)c(N2CCCCC2)c1=O | 4.31 µM | 16.5 µM | 4.72 µM | 4.65 µM | 5.56 µM | 3.33 µM | 4.94 µM | 3.47 µM | 5.07 µM | – | – | – | – | – | – | – | – | – | –
19 | O=C(c1ccccc1)c1c(-c2ccccc2)sc2nc3ccccc3nc12 | > 100 µM | > 100 µM | > 100 µM | > 100 µM | > 100 µM | – | – | > 100 µM | > 100 µM | > 100 µM | – | – | – | – | – | – | – | – | –
20 | C=C1C(=O)OC2C1CCC(C)C1C=CC(=O)C12C (centres undefined) | 3.25 µM | – | 46.1 µM | 10.4 µM | 8.54 µM | 3.35 µM | 20.7 µM | 3.91 µM | 14.4 µM | 23.3 µM | – | – | – | – | – | – | – | – | –
21 | COc1ccc2c3c([nH]c2c1[N+](=O)[O-])C(C)N(Cc1ccc([N+](=O)[O-])cc1)CC3 (centres undefined) | > 100 µM | 64.4 µM | > 100 µM | > 100 µM | > 100 µM | 59.8 µM | – | – | – | > 100 µM | – | – | – | – | – | – | – | – | –
22 | Cc1c2oc3c(C)ccc(C(=O)NC4C(=O)NC(C(C)C)C(=O)N5CCCC5C(=O)N(C)CC(=O)N(C)C(C(C)O)C(=O)OC4C)c3nc-2c(C(=O)NC2C(=O)NC(C(C)C)C(=O)N3CCCC3C(=O)N(C)CC(=O)N(C)C(C(C)O)C(=O)OC2C)c(N)c1=O (centres undefined) (I: TVP[Sar][NMeT] / II: TVP[Sar][NMeT]; ester I:1-I:C, II:1-II:C; linker I:N-II:N via Actinocin(9to1); configuration not given here) | > 26.6 µM | > 43.8 µM | > 100 µM | 11.1 µM and > 1 µM | 26.7 µM and > 1 µM | – | – | > 100 µM | – | – | – | – | – | – | – | – | – | – | 2.3 µM and 0.572 µM
23 | NC[C@H]1Nc2ccccc2[C@@H](O)C1O (some centres undefined) | > 100 µM | > 100 µM | > 100 µM | > 100 µM | > 100 µM | – | – | > 100 µM | – | – | – | – | – | – | – | – | – | – | –
24 | COc1ccc(NC([Se])=NC23CC4CC(CC(C4)C2)C3)cc1 | 4.71 µM | 3.71 µM | 50.6 µM | 5.12 µM | 4.97 µM | – | – | 2.78 µM | – | – | 1.28 µM | 1.99 µM | 0.645 µM | 0.611 µM | 0.705 µM | – | – | – | 1.86 µM
25 | c1cc(N2CCCN(c3ccc(C4=NCCCN4)cc3)CC2)ccc1C1=NCCCN1 | > 100 µM | > 100 µM | > 100 µM | > 100 µM | > 100 µM | – | – | > 100 µM | – | – | > 100 µM | > 100 µM | > 100 µM | > 100 µM | > 100 µM | – | – | – | > 100 µM
26 | Cc1cc(O)cc2c1[C@]1(C)CCC3C(C)(C)CCC[C@]3(C)[C@H]1C2 (some centres undefined) | 33.3 µM | 54.8 µM | 35.7 µM | 98.6 µM | 92 µM | – | – | 33 µM | – | – | 19 µM | 19.1 µM | 26.1 µM | 28.1 µM | 29.6 µM | – | – | – | 20.8 µM
27 | C=C(NC(=O)C(=C)NC(=O)c1csc(C2=NC3c4csc(n4)C4NC(=O)c5csc(n5)C(C(C)(O)C(C)O)NC(=O)C5CSC(=N5)C(=CC)NC(=O)C(C(C)O)NC(=O)c5csc(n5)C3(CC2)NC(=O)C(C)NC(=O)C(=C)NC(=O)C(C)NC(=O)C(C(C)CC)NC2C=Cc3c(C(C)O)cc(nc3C2O)C(=O)OC4C)n1)C(N)=O (centres undefined) | > 100 µM | > 100 µM | > 100 µM | 5.55 µM | 5.24 µM | – | – | 4.09 µM | – | – | 1.74 µM | 8.25 µM | 7.02 µM | 2.08 µM | 1.83 µM | – | – | – | 54 µM
28 | C[C@]12CC[C@@H]3c4cc(-c5ccc(F)cc5)c(O)cc4CC[C@H]3[C@@H]1CC[C@@H]2O | 18.9 µM | 37.3 µM | 22.6 µM | 18.3 µM | 29.3 µM | – | – | 22 µM | – | – | 5.65 µM | 5.86 µM | 8.02 µM | 4.88 µM | 6.93 µM | – | – | – | 9.61 µM
